According to patent US6656932B2, “Benzo thiadiazine matrix metalloproteinase inhibitors” (Warner-Lambert Company, priority 2001, dated 2003):
Where a name gives a salt, the structure may show the parent alone. Read-outs that look alike come from different tables or passages of the source.

Key:
Type in all cases: biochemical
[1] = target: T1, MMP-1FL (full-length interstitial collagenase) (Homo sapiens, UniProt P03956); assay: Thiopeptolide hydrolysis assay, MMP-1FL; details: Table 2; thiopeptolide substrate, HEPES pH 7.0; read-out: IC50 (μM) Versus Certain MMPs: MMP01 (FL)
T1 sequence (P03956 100-469): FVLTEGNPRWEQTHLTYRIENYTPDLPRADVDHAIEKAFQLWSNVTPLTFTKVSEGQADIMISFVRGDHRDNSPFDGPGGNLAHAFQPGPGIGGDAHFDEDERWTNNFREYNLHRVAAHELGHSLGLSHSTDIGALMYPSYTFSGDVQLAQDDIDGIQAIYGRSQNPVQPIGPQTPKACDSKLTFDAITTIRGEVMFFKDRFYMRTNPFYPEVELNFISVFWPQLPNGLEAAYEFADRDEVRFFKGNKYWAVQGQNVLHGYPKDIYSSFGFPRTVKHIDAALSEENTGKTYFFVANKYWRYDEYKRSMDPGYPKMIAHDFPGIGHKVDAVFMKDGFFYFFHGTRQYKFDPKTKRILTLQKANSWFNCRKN
Description: (§1) The invention compounds of Formula I have been evaluated in standard assays for their ability to inhibit the catalytic activity of various MMP enzymes.
(§2) Thiopeptolide substrates show virtually no decomposition or hydrolysis at or below neutral pH in the absence of a matrix metalloproteinase enzyme.
(§3) Several representative compounds have been evaluated for their ability to inhibit various matrix metalloproteinase enzymes.

[2] = target: MMP-3CD (catalytic domain of stromelysin-1) (Homo sapiens, UniProt P08254); assay: Thiopeptolide hydrolysis assay, MMP-3CD; details: thiopeptolide substrate, MES buffer pH 6.0
MMP-3CD (catalytic domain of stromelysin-1), sequence (P08254 100-272 limits assumed): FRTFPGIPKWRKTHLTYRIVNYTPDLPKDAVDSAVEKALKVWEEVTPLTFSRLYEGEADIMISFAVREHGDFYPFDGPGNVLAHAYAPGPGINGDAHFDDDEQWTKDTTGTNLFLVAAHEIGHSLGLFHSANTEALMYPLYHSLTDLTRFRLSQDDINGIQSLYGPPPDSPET
Protocol: as §1, §2, §3
It should be appreciated that the assay buffer used with MMP-3CD was 50 mM of N-morpholinoethane sulfonate (“MES”) at pH 6.0 rather than the HEPES buffer at pH 7.0 described above.

[3] = target: T2, MMP-7FL (full-length matrilysin) (Homo sapiens, UniProt P09237); assay: Thiopeptolide hydrolysis assay, MMP-7FL; details: thiopeptolide substrate, HEPES pH 7.0
T2 sequence (P09237 95-267): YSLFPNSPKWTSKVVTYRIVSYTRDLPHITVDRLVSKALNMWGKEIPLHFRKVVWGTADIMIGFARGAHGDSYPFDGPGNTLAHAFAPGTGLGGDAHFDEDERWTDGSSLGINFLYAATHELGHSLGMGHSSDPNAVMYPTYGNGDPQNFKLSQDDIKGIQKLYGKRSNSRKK
Description: as §1, §2, §3

[4] = target: MMP-9FL (full-length Gelatinase B) (Homo sapiens, UniProt P14780); assay: Thiopeptolide hydrolysis assay, MMP-9FL; details: Table 2; thiopeptolide substrate, HEPES pH 7.0; read-out: IC50 (μM) Versus Certain MMPs: MMP09 (FL)
MMP-9FL (full-length Gelatinase B), sequence (P14780 94-707, species assumed): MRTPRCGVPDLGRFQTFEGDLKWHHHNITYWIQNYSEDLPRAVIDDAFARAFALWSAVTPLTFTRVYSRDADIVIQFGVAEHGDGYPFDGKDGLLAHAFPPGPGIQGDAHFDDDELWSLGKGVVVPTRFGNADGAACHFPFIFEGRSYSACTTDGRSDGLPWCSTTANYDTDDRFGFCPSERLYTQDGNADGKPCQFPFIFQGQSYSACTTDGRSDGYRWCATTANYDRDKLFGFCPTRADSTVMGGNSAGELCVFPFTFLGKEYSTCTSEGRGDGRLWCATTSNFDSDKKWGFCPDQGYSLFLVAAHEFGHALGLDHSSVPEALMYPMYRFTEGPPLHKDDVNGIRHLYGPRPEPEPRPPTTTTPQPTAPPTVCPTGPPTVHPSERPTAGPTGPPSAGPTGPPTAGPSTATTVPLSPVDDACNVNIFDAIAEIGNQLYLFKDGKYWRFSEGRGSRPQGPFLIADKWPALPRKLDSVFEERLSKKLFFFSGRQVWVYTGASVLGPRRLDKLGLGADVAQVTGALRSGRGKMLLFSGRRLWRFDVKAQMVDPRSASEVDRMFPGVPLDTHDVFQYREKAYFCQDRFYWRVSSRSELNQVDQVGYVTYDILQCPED
Description: as §1, §2, §3

[5] = target: MMP-13CD (catalytic domain of collagenase 3) (Homo sapiens, UniProt P45452); assay: Thiopeptolide hydrolysis assay, MMP-13CD; details: thiopeptolide substrate, HEPES pH 7.0
Description: as §1, §2, §3

[6] = target: MMP-14CD (catalytic domain of MMP-14) (Homo sapiens, UniProt P50281); assay: Thiopeptolide hydrolysis assay, MMP-14CD; details: Table 2; thiopeptolide substrate, HEPES pH 7.0; read-out: IC50 (μM) Versus Certain MMPs: MMP14 (CD)
Description: as §1, §2, §3

[7] = Table 2, read-out: IC50 (μM) Versus Certain MMPs: MMP03 (CD)
[8] = Table 2, read-out: IC50 (μM) Versus Certain MMPs: MMP07 (FL)
[9] = Table 2, read-out: IC50 (μM) Versus Certain MMPs: MMP13 (CD)
[10] = Table 1, read-out: MMP13 (CD) IC50

Row | IC50 [1] [µM] | IC50 [2, 7] [µM] | IC50 [3, 8] [µM] | IC50 [4] [µM] | IC50 [5, 9] [µM] | IC50 [6] [µM] | Compound | other results
1 | > 100 | > 30 | > 30 | > 100 | 0.00485 | > 100 | COc1cccc(CNC(=O)c2ccc3c(c2)S(=O)(=O)N(Cc2ccc(C(=O)O)cc2)C(=O)N3C)c1 [Example 31, 4-[7-(3-Methoxy-benzylcarbamoyl)-4-methyl-1,1,3-trioxo-3,4-dihydro-1H-1l^6-benzo[1,2,4]thiadiazin-2-ylmethyl]-benzoic Acid] | 
2 | > 100 | > 30 | > 100 | > 100 | 0.019 | > 100 | CN1C(=O)N(Cc2ccc(C(=O)O)cc2)S(=O)(=O)c2cc(C(=O)NCc3ccc(F)cc3)ccc21 [Example 25, 4-[7-(4-Fluoro-benzylcarbamoyl)-4-methyl-1,1,3-trioxo-3,4-dihydro-1H-1l^6-benzo[1,2,4]thiadiazin-2-ylmethyl]-benzoic Acid] | 
3 | > 30 | 9.4 | > 30 | > 30 | 0.13 | > 30 | COc1ccc(CNC(=O)c2ccc3c(c2)S(=O)(=O)N(Cc2ccc(C#N)cc2)C(=O)N3C)cc1 [Example 29, 2-(4-Cyano-benzyl)-4-methyl-1,1,3-trioxo-1,2,3,4-tetrahydro-1l^6-benzo[1,2,4]thiadiazine-7-carboxylic acid 4-methoxy-benzylamide] | 
4 | > 100 | > 30 | > 100 | > 100 | 0.25 | > 100 | COc1ccc(CNC(=O)c2ccc3c(c2)S(=O)(=O)N(Cc2ccc(C(=O)NC(C(=O)O)C(C)C)cc2)C(=O)N3C)cc1 (centres unmarked) [Example 28, 2-{4-[7-(4-Methoxy-benzylcarbamoyl)-4-methyl-1,1,3-trioxo-3,4-dihydro-1l^6-benzo[1,2,4]thiadiazin-2-ylmethyl]-benzoylamino}-3-methyl-butyric Acid] | 
5 | > 30 | > 30 | > 30 | 10 | 0.385 | > 30 | COC(=O)c1ccc(CN2C(=O)N(C)c3ccc(C(=O)NCc4ccc(F)cc4)cc3S2(=O)=O)cc1 [Example 20, 4-[7-(4-Fluoro-benzylcarbamoyl)-4-methyl-1,1,3-trioxo-3,4-dihydro-1H-1l^6-benzo[1,2,4]thiadiazin-2-ylmethyl]-benzoic Acid Methyl Ester] | 
6 | > 100 | 15 | > 30 | > 100 | 0.0062 | > 100 | COc1ccc(CNC(=O)c2ccc3c(c2)S(=O)(=O)N(Cc2ccc(-c4nn[nH]n4)cc2)C(=O)N3C)cc1 [Example 32, 4-Methyl-1,1,3-trioxo-2-[4-(2H-tetrazol-5-yl)-benzyl]-1,2,3,4-tetrahydro-1l^6-benzo[1,2,4]thiadiazine-7-carboxylic acid 4-methoxy-benzylamide] | 
7 |  |  |  |  |  |  | CN1C(=O)N(Cc2ccccc2)S(=O)(=O)c2cc(C(=O)OCc3ccccc3)ccc21 [Example 1, 2-Benzyl-4-methyl-1,1,3-trioxo-1,2,3,4-tetrahydro-1l^6-benzo[1,2,4]thiadiazine-7-carboxylic Acid Benzyl Ester] | IC50 ([2]; Table 1, read-out: MMP03 (CD) IC50): 85 µM; IC50 ([3]; Table 1, read-out: MMP07 (FL) IC50): 44 µM; IC50 [5, 10]: 0.2 µM
8 |  |  |  |  | 8.8 |  | COc1ccc(CNC(=O)c2ccc3c(c2)S(=O)(=O)N(Cc2ccc(N)cc2)C(=O)N3C)cc1 [Example 33, 2-(4-Amino-benzyl)-4-methyl-1,1,3-trioxo-1,2,3,4-tetrahydro-1l^6-benzo[1,2,4]thiadiazine-7-carboxylic acid 4-methoxy-benzylamide] | 
9 |  |  |  |  | 1.7 |  | C=C(C)CN1C(=O)N(C)c2ccc(C(=O)NCc3ccc(OC)cc3)cc2S1(=O)=O [Example 40, 4-Methyl-2-(2-methyl-allyl)-1,1,3-trioxo-1,2,3,4-tetrahydro-1l^6-benzo[1,2,4]thiadiazine-7-carboxylic Acid 4-methoxy-benzylamide] | 
10 |  |  |  |  | 11 |  | COc1ccc(CNC(=O)c2ccc3c(c2)S(=O)(=O)N(Cc2ccc(S(C)(=O)=O)cc2)C(=O)N3C)cc1 [Example 15, 2-(4-Methanesulfonyl-benzyl)-4-methyl-1,1,3-trioxo-1,2,3,4-tetrahydro-1l^6-benzo[1,2,4]thiadiazine-7-carboxylic acid 4-methoxy-benzylamide] | 
11 |  |  |  |  | 0.7 |  | COc1ccc(CNC(=O)c2ccc3c(c2)S(=O)(=O)N(Cc2ccc4nonc4c2)C(=O)N3C)cc1 [Example 45, 2-Benzo[1,2,5]oxadiazol-5-ylmethyl-4-methyl-1,1,3-trioxo-1,2,3,4-tetrahydro-1l^6-benzo[1,2,4]thiadiazine-7-carboxylic Acid 4-methoxy-benzylamide] | 
12 |  |  |  |  | 86 |  | COc1ccc(CNC(=O)c2ccc3c(c2)S(=O)(=O)N(CCNC(=O)c2ccccc2)C(=O)N3C)cc1 [Example 44, 4-Methyl-1,1,3-trioxo-2-{2-[(1-phenyl-methanoyl)-amino]-ethyl}-1,2,3,4-tetrahydro-1l^6-benzo[1,2,4]thiadiazine-7-carboxylic Acid 4-methoxy-benzylamide] | 
13 |  |  |  |  | 1.5 |  | CC/C=C/CN1C(=O)N(C)c2ccc(C(=O)NCc3ccc(OC)cc3)cc2S1(=O)=O [Example 39, 4-Methyl-1,1,3-trioxo-2-(E)-pent-2-enyl-1,2,3,4-tetrahydro-1l^6-benzo[1,2,4]thiadiazine-7-carboxylic Acid 4-methoxy-benzylamide] | 
14 |  |  |  |  | > 30 |  | COc1ccc(CNC(=O)c2ccc3c(c2)S(=O)(=O)N(Cc2ccc(C(=O)OC(C)(C)C)cc2)C(=O)N3C)cc1 [Example 12, 4-[7-(4-Methoxy-benzylcarbamoyl)-4-methyl-1,1,3-trioxo-3,4-dihydro-1H-1l^6-benzo[1,2,4]thiadiazin-2-ylmethyl]-Benzoic Acid Tert-Butyl Ester] | 
15 |  | 16 |  |  | 0.615 |  | COc1ccc(CNC(=O)c2ccc3c(c2)S(=O)(=O)N(Cc2ccc([N+](=O)[O-])cc2)C(=O)N3C)cc1 [Example 17, 4-Methyl-2-(4-nitro-benzyl)-1,1,3-trioxo-1,2,3,4-tetrahydro-1l^6-benzo[1,2,4]thiadiazine-7-carboxylic acid 4-methoxy-benzylamide] | 
16 |  |  |  |  |  |  | CN1C(=O)N(Cc2ccccc2)S(=O)(=O)c2cc(C(=O)NCc3ccncc3)ccc21 [Example 3, 2-Benzyl-4-methyl-1,1,3-trioxo-1,2,3,4-tetrahydro-1l^6-benzo[1,2,4]thiadiazine-7-carboxylic acid (pyridin-4-ylmethyl)-amide] | IC50 [5, 10]: 0.51 µM
17 |  |  |  |  | > 30 |  | CN1C(=O)N(Cc2ccccc2)S(=O)(=O)c2cc(C(=O)NCc3ccc4[nH]ccc4c3)ccc21 [Example 4, 2-Benzyl-4-methyl-1,1,3-trioxo-1,2,3,4-tetrahydro-1l^6-benzo[1,2,4]thiadiazine-7-carboxylic acid (1H-indol-5-ylmethyl)-amide] | 

Row | Compound | IC50 [1] [µM] | IC50 [2, 7] [µM] | IC50 [3, 8] [µM] | IC50 [4] [µM] | IC50 [5, 9] [µM] | IC50 [6] [µM] | other results
18 | CN1C(=O)N(Cc2ccccc2)S(=O)(=O)c2cc(C(=O)NCc3ccc(CCS(=O)(=O)NC(C)(C)C)cc3)ccc21 [Example 6, 2-Benzyl-4-methyl-1,1,3-trioxo-1,2,3,4-tetrahydro-1l^6-benzo[1,2,4]thiadiazine-7-carboxylic acid 4-(2-tert-butylsulfamoyl-ethyl)-benzylamide] |  |  |  |  | > 30 |  | 
19 | COc1ccc(CNC(=O)c2ccc3c(c2)S(=O)(=O)N(Cc2ccc(C(=O)OCCN(C)C)cc2)C(=O)N3C)cc1 [Example 26, 4-[7-(4-Methoxy-benzylcarbamoyl)-4-methyl-1,1,3-trioxo-3,4-dihydro-1H-1l^6-benzo[1,2,4]thiadiazin-2-ylmethyl]-benzoic acid 2-dimethylamino-ethyl Ester Hydrochloride] |  |  |  |  | 2.2 |  | 
20 | COc1ccc(CNC(=O)c2ccc3c(c2)S(=O)(=O)N(Cc2ccc(-c4ccccc4)cc2)C(=O)N3C)cc1 [Example 23, 2-Biphenyl-4-ylmethyl-4-methyl-1,1,3-trioxo-1,2,3,4-tetrahydro-1l^6-benzo[1,2,4]thiadiazine-7-carboxylic acid 4-methoxy-benzylamide] |  |  |  |  | > 30 |  | 
